Reference: patent US6015820A, “4-Aryl-thio-pyridin-2(1H)-ones, medicines containing them and their uses in the treatment of illnesses linked to HIV” (priority 1995, dated 2000)
Like-named read-outs stand apart in the source and are kept apart here.

Legend:
[1] = tested on: HIV-1 LAI; test: anti-HIV-1 activity: replication of HIV-1 LAI on CEM-SS cells; format: cell-based
Summary of the method: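 CEM-SS cells were infected with 100 TCID50 virus for 30 min, washed, then cultured 5 days with test compound at varied concentrations. Virus production was measured as reverse transcriptase activity in culture supernatant, and IC50 was derived by median-effect dose-effect analysis.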

[2] = cytotoxicity on non-infected cells (MTT test); format: cell-based; conditions: human
Summary of the method: (§1)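 Non-infected cells incubated 5 days with compounds; viability by MTT reduction to formazan via mitochondrial dehydrogenases, read at OD540. CC50 is the concentration halving OD540.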

[3] = tested on: CEM-SS cells; test: cytotoxicity on non-infected cells (MTT test); format: cell-based; conditions: Table 3; non-infected cells, MTT, 5 days
Summary of the method: as §1

[4] = tested on: HIV-1 resistant to Nevirapine (N119); test: microbe, parasite or virus in culture; format: cell-based; conditions: for IC50: Human immunodeficiency virus 1, CEM-SS
Method: The effects of the compounds were evaluated on the replication of HIV-1 (see Table 2) on CEM-SS cells (cell lines of the lymphocytic lineage) strongly infected with HIV-1 LAI as described by Moog et al. (Antiviral Research (1994), 24, 275-288). The CEM-SS and the HIV-1 resistant to Nevirapine (N119) carrying a point mutation at codon 181 of the IT, were supplied respectively by P. NARA and D. RICHMAN through the intermediary of the AIDS Research and Reference Reagent Program, Division of AIDS, NIAID, NIH (USA) (Catalogue references : No. 776 and No. 1392).
(§2) The virus production was measured by quantifying the activity of the inverse transcriptase associated with viral particles released into the culture supernatant. In short, cells were infected with 100 TCID50 for 30 minutes; after adsorption of the virus, unbound particles were removed by two washings and the cells were cultivated in the presence of different concentrations of the compounds tested for 5 days before determining the viral production. The concentration inhibiting 50% of the viral multiplication (IC50) came from the computer plot of the median effect of the dose effect results (Chou et al. Elsevier Science Publishers, Cambridge U.K. (1985), 19-28).

[5] = tested on: HIV-2 D194; test: anti-HIV-2 activity, HIV-2 D194/PBMC; format: cell-based; conditions: Human immunodeficiency virus 2, Table 4
Method: as §2
Thirty two compounds according to the invention were studied for their anti-HIV-1 biological activity. […] This compound was then tested with other colonies and other cell lines (Table 4).

[6] = target: inverse transcriptase of HIV-1 (HIV-1 M:B_ARV2/SF2, UniProt P03369); test: enzymatic kinetic analysis of IT inhibition (Lineweaver-Burk); format: biochemical
Method: FIG. 12 is a double-reciprocal (Lineweaver-Burk) representation of the inhibition of the inverse transcriptase of HIV-1 by compound 7c with the poly C-oligo dG as a matrix-primer couple and dGPT as substrate.
FIG. 13 is a double-reciprocal representation, similar to […], in which the poly A-oligo dT is used as a matrix-primer couple and dTTP as substrate.
Incubation was carried out at 37° C. for 10 minutes in the presence of various matrix-primers.
a) Poly C-oligo dG: the reaction mixture contained a final volume of 0.05 ml, Tris-HCl 50 mM pH 8.0, MgCl2 5 mM, dithiothreitol 4 mM, 0.48 A260 /ml of poly C-oligo dG (5:1), 1.0 μCi of [^3 H]dGTP (28 Ci/mmole), dGTP 2 μM, KCl 80 mM, 1 μg of bovine serum albumin and IT 20-50 nM.
b) Poly A-oligo dT: the same conditions as in a), except that 0.48 A260 /ml of poly A-oligo dT (5:1), 0.5 μCi of [^3 H]dTTP (46 Ci/mmole), dTTP 20 μM were used.
The reactions were stopped by adding in the cold 1 ml of 10% trichloroacetic acid plus sodium pyrophosphate 0.1 M. The precipitates were filtered through nitrocellulose membranes, washed with 2% trichloroacetic acid, dried and counted in a PPO/POPOP/toluene scintillation mixture.

## CCc1c(C)[nH]c(=O)c([N+](=O)[O-])c1Sc1cc(C)cc(C)c1 [Compound 7c, 5-ethyl-6-methyl-3-nitro-4-(3', 5'-dimethylphenyl)thio-pyridin-2(1H)-one]
[1]; Human immunodeficiency virus 1, 120 h, Table 2, HIV-1 LAI, CEM-SS cells, 5 days, read-out: IC50, anti-HIV-1 activity
  IC50: 0.006 µM
[1]; Human immunodeficiency virus 1, CEM-SS, Table 4, HIV-1 (LA1)/CEMSS, read-out: IC50
  IC50: < 0.0004 µM
[1]; Table 2, HIV-1 LAI, CEM-SS cells
  SI (selectivity index): > 1666
[2]; cem-ss cells, Table 4, line HIV-1 (LA1)/CEMSS
  CC50 at 120 h: > 10 µM
[2]; Table 2, non-infected CEM-SS cells, MTT, 5 days
  CC50 at 120 h: > 10 µM
[3]
  CC50: > 10 µM
[4]
  IC50: 0.023 µM
[4]; read-out: IC50, strain resistant to Nevirapine
  IC50: 0.26 µM
[4]; Table 3, strain resistant to Nevirapine
  SI (selectivity index): > 38
[5]
  IC50: > 10 µM
[6]; as regards dGTP substrate, poly C-oligo dG matrix-primer (FIG. 12)
  type of inhibition: non-competitive
[6]; poly A-oligo dT matrix-primer, dTTP substrate (FIG. 13)
  type of inhibition: competitive
